Values after ≈ are worked out from the molar mass of the structure shown.
Legend:
[1] = system: S. cerevisiae EG118 (sod1Δ); experiment: Yeast survival assay, EG118 (sod1Δ); assay type: cell-based, Saccharomyces cerevisiae; conditions: positive control H2O2 5 mM, 1 h in PBS
Description: (§1) Media, solutions and buffers were prepared according to Burke et al.. YPD medium (0.5% yeast extract, 2% peptone, 2% glucose) was used for routine growth. Synthetic medium SC (0.67% yeast nitrogen base, 0.1% ammonium sulfate, 2% glucose) supplemented with the appropriate amino acids and bases ([…]) was used for the detection of mutations.
(§2) Stationary phase (STAT) cultures were obtained by inoculation of a single colony into liquid YPD. We chose to work in the stationary phase of growth because this resembles most cells of multicellular organisms in important aspects: (i) most energy comes from mitochondrial respiration; (ii) the cells have left the active cell cycle and have entered the Go phase; and (iii) damage accumulates over time.
(§3) STAT cells (1 × 10^8 cells/mL) were exposed to TTHL (10–500 μg/mL) and incubated under growth conditions for 1 h in PBS at 30°C. Cells were then washed and treated with H2O2 (5 mM) in PBS for another hour. Suitable aliquots were plated in triplicate on solid YPD (2–3 days, 30°C) and colony-forming units were counted. Sensitivity was expressed as a percentage of survival in relation to the negative control (solvent).

[2] = system: S. cerevisiae EG110 (sod2Δ); experiment: Yeast survival assay, EG110 (sod2Δ); assay type: cell-based, Saccharomyces cerevisiae; conditions: positive control H2O2 5 mM, 1 h in PBS
Description: as §1, §2, §3

[3] = system: S. cerevisiae EG103 (SOD-WT); experiment: Yeast survival assay, EG103 (SOD-WT); assay type: cell-based, Saccharomyces cerevisiae; conditions: positive control H2O2 5 mM, 1 h in PBS
Description: as §1, §2, §3

[4] = system: S. cerevisiae EG133 (sod1Δsod2Δ); experiment: Yeast survival assay, EG133 (sod1Δsod2Δ); assay type: cell-based, Saccharomyces cerevisiae; conditions: positive control H2O2 5 mM, 1 h in PBS
Description: as §1, §2, §3

[5] = system: HCT116 cell (colorectal carcinoma); experiment: XTT cell viability assay, HCT116; assay type: cell-based, human; conditions: Homo sapiens, HCT-116; HCT116, 24 h treatment, XTT
Description: (§4) The human cell lines MCF-7 (breast adenocarcinoma), HepG2 (hepatoma), T24 (bladder cancer), CACO-2 (colorectal adenocarcinoma) and MRC5 (lung normal fibroblast) were obtained from the Rio de Janeiro Cell Bank (Rio de Janeiro, RJ, Brazil). The HCT116 cell (colorectal carcinoma), and HT29 cell (colorectal adenocarcinoma) were kindly provided by Dr. Annette K. Larsen (Institut National de la Santé et de la Recherche Médicale - INSERM, Paris, França). All cell lines except MCF-7 were grown in DMEM supplemented with 10% or 20% (for CACO-2) FBS, 100 units.mL^-1 penicillin and 100 μg.mL^-1 streptomycin at 37°C in a humidified atmosphere of 5% CO2. MCF-7 cells were maintained in RPMI-1640 supplemented with 20% FBS at the same conditions described above.
(§5) The cytotoxic potential of the TTHL was evaluated by the XTT assay in human tumor cell lines as well as in MRC5 normal fibroblasts. Cells (1 × 10^4 cells) were seeded on 96-well plates in growth medium and incubated overnight. Afterwards, TTHL (0.5, 1.0, 2.5, 5.0, and 10 μg/mL) was added to each well and incubated for 24, 48, 72, and 120 h. Mitoxantrone, a cytostatic anthracenedione that intercalates in DNA and increases the incidence of double-strand breaks by stabilizing the cleavable complex of topoisomerase II and DNA, was used as positive control. At the end of each treatment, cell viability was assessed according to the manufacturer’s instructions. Briefly, after discarding the medium, 1 mL of XTT labeling mixture was added to the cells and incubated for 2 h at 37°C. Absorbance was measured with a SpectraMax reader (Bio-Rad, USA) at a test wavelength of 492 nm (A492) and a reference wavelength of 690 nm (A690). The final result corresponds to A492-A690. The absorbance of negative control cells was set as 100% viability, and the values for treated cells were calculated as a percentage of the control.
(§6) The IC20, IC50, and IC80 values and their 95% confidence intervals (CI 95%) were obtained by nonlinear regression using GraphPad Prism v5 program (Intuitive Software for Science, San Diego, CA, USA). Selective index (SI) was calculated by IC50 in MRC5 cells/IC50 in tumoral cells. All experiments were independently repeated at least three times, with triplicate samples for each treatment. Results are expressed as means ± standard deviation (SD). Data were analyzed by one-way analysis of variance (ANOVA), and means were compared using Tukey test, with P ≤ 0.05 considered as statistically significant.

[6] = system: MCF-7 (breast adenocarcinoma); experiment: XTT cell viability assay, MCF-7; assay type: cell-based, human; conditions: Homo sapiens, MCF7; MCF-7, 24 h treatment, XTT
Description: as §4, §5, §6

T24 (bladder cancer) = experiment: XTT cell viability assay, T24; assay type: cell-based, human; conditions: Homo sapiens; T24, 24 h treatment, XTT
Description: as §4, §5, §6

[7] = system: CACO-2 (colorectal adenocarcinoma); experiment: XTT cell viability assay, CACO-2; assay type: cell-based, human; conditions: Homo sapiens; CACO-2, 24 h treatment, XTT
Description: as §4, §5, §6

tumor cell lines = experiment: XTT cell viability assay, panel of tumor cell lines; assay type: cell-based; conditions: Homo sapiens, read-out: IC50 values in tumor cell lines (range over the panel)
Description: as §4
The cytotoxic potential of the TTHL was evaluated by the XTT assay in human tumor cell lines as well as in MRC5 normal fibroblasts. Cells (1 × 10^4 cells) were seeded on 96-well plates in growth medium and incubated overnight. […] At the end of each treatment, cell viability was assessed according to the manufacturer’s instructions. […] Absorbance was measured with a SpectraMax reader (Bio-Rad, USA) at a test wavelength of 492 nm (A492) and a reference wavelength of 690 nm (A690). […] The absorbance of negative control cells was set as 100% viability, and the values for treated cells were calculated as a percentage of the control. […]

[8] = system: HT29 cell (colorectal adenocarcinoma); experiment: XTT cell viability assay, HT29; assay type: cell-based, human; conditions: Homo sapiens, HT-29; HT29, 24 h treatment, XTT
Description: as §4, §5, §6

[9] = system: MRC5 (lung normal fibroblast); experiment: XTT cell viability assay, MRC5 normal fibroblasts; assay type: cell-based; conditions: Homo sapiens, MRC5, 24 h treatment
Description: as §4, §5, §6

HepG2 (hepatoma) = experiment: XTT cell viability assay, HepG2; assay type: cell-based, human; conditions: Homo sapiens; HepG2, 24 h treatment, XTT
Description: as §4, §5, §6

OO [H2O2, hydrogen peroxide, reference compound]
survival (percentage in relation to negative control) [1]: 16.27 ± 4.88% | survival (percentage in relation to negative control) [2]: 19.10 ± 4.03% | survival (percentage in relation to negative control) [3]: 63.03 ± 4.12% | survival (percentage in relation to negative control) [4]: 19.33 ± 2.10%

O=C1c2c(O)ccc(O)c2C(=O)c2c(NCCNCCO)ccc(NCCNCCO)c21 [MXT, mitoxantrone, reference compound]
IC50 [5]: 0.61 ± 0.67 mg/L (≈ 1.37 µM) | IC50 [6]: 0.87 ± 1.59 mg/L (≈ 1.96 µM) | IC50 (T24 (bladder cancer)): 2.5 ± 0.62 mg/L (≈ 5.62 µM) | IC50 [7]: 2.4 ± 1.81 mg/L (≈ 5.4 µM) | IC50 (tumor cell lines): 0.61 to 3.5 mg/L (≈ 1.37 to 7.87 µM) | IC50 [8]: 0.88 ± 2.33 mg/L (≈ 1.98 µM) | IC50 [9]: 2.88 ± 1.44 mg/L (≈ 6.48 µM) | IC50 (HepG2 (hepatoma)): 3.5 ± 0.39 mg/L (≈ 7.87 µM)

Source: paper PMC4129108, “The natural triterpene 3β,6β,16β-trihydroxy-lup-20(29)-ene obtained from the flowers of Combretum leprosum induces apoptosis in MCF-7 breast cancer cells” (BMC Complementary and Alternative Medicine, 2014)
